{"source": "paper PMC10824666", "about": "(Nature Cancer, 2023)", "experiment_in_all_cases": "biochemical", "set-up_in_all_cases": "Eurofins DiscoverX kinase panel, competitive binding assay at 1 uM, percent of DMSO control", "settings_in_all_cases": "competitive binding, percent of DMSO control", "key": {"[1]": {"target": "T1, Abl_unphos (Homo sapiens, UniProt P00519)", "T1 construct": "gene ABL1; non-phosphorylated", "T1 sequence (P00519 whole entry)": "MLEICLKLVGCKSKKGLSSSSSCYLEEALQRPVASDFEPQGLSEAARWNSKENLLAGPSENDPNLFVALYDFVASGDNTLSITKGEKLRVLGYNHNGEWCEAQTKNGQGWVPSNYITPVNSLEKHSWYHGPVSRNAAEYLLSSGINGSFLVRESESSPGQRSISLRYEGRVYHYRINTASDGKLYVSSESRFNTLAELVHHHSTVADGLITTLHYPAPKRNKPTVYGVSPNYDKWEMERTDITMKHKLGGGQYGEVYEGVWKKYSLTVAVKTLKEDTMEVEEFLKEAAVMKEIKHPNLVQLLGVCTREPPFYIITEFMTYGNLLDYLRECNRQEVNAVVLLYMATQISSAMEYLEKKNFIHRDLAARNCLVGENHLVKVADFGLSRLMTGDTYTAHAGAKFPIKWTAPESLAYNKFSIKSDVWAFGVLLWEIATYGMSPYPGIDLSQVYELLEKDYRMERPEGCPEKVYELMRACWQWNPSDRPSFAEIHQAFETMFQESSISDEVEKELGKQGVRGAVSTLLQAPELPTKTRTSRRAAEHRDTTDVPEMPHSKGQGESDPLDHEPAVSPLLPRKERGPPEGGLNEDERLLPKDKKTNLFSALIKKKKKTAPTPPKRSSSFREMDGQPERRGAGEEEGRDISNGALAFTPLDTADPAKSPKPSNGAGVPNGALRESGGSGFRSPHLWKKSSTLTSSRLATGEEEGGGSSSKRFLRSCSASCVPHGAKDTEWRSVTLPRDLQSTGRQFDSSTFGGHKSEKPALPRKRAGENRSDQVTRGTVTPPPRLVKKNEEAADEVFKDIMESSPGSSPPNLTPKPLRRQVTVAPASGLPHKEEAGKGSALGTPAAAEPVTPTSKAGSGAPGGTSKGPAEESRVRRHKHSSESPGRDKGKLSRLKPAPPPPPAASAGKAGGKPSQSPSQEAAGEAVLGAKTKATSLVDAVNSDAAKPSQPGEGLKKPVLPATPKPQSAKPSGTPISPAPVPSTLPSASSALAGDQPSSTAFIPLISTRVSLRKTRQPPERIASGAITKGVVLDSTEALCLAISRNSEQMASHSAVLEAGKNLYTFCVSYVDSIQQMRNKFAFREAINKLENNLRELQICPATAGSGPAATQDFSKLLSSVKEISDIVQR", "protocol": "(§1) Extended Data Fig. 3 In vitro characterization of potent and selective KIF18A inhibitors. a, KIF18A compounds (1 µM) were assessed across a panel of kinases (n = 96) by a competitive binding assay. Graph presented as percentage of control (POC); dashed line indicates POC value of 30 (n = 1 experiment). b, Tubulin polymerization analysis. Profile of KIF18A compounds (10 µM) relative to DMSO, paclitaxel (5 µM, tubulin stabilizer), or nocodazole (5 µM, tubulin destabilizer). Graphs presented as tubulin fluorescence signal at 440 nm expressed as arbitrary units (a.u.) versus time (min) with area-under-the-curve (AUC) values (n = 1 or 3 independent experiments). c, Mitotic spindle image analysis. […] Representative images were captured with x40 objective (scale bar = 10 µm) (n = 1 experiment). d-f, KIF18A compound effects on HeLa cells. d, Cells were treated for 96 h with DMSO or KIF18A compounds at the indicated concentrations. KIF18A compound concentration-response profiles presented as count relative to the percentage of DMSO control (POC) with count EC50 values (n = 2 independent experiments in duplicate). e, KIF18A protein localization in cells after treatment for 6 hours with DMSO or AM-1882 (0.05 µM). Cells stained to detect DNA, KIF18A, and centrin-3. Representative images of mitotic cells (n = 3 per group) were captured with x60 objective (scale bar = 5 µm) and graphs of line scan measurements were obtained for DNA, KIF18A, and centrin-3 channels expressed as fluorescence intensity (a.u.) versus distance (µm) (n = 1 experiment). f, Mitotic cell fate imaging analysis. HeLa Kyoto cells co-expressing α-tubulin-EGFP and H2B-mCherry proteins released from a G1S block in media containing DMSO or AM-1882 (0.2 µM). Analysis was performed on cells entering the first mitosis (n = 40 cells per group). Graph presented as time in mitosis (h) versus mitotic cell fate, either complete cell division (CCD) or death in mitosis (DiM). Classified cells exiting mitosis by the number of daughter cells and cell death in […] We screened a small-molecule library of diverse compounds for selective inhibitors of KIF18A MT-ATPase motor activity. Two compound hits were discovered that phenocopied the effects of KIF18A KD in cells; these hits are structurally distinct from the KIF18A inhibitor BTB-1 (refs. [27],[28]). […] However, the potency of the KIF18A inhibitors was unaffected by varying ATP and MT concentrations (Extended Data Fig. 2d). This supports our proposed model in which KIF18A inhibitors occupy an allosteric pocket formed by motor helices α4 and α6 close to the motor MT-binding surface. To screen for potential off-target interactions with essential mitotic kinases, three of the KIF18A compounds were profiled against a large panel of kinases. […] We next investigated whether our KIF18A inhibitors affected tubulin polymerization in vitro in the absence of the KIF18A motor. All four KIF18A compounds had tubulin-polymerization profiles similar to that of the DMSO control and distinct from those of the paclitaxel (MT stabilizer) and nocodazole (MT destabilizer) co"}, "[2]": {"target": "CDK8 (Homo sapiens, UniProt P49336)", "sequence (P49336 whole entry)": "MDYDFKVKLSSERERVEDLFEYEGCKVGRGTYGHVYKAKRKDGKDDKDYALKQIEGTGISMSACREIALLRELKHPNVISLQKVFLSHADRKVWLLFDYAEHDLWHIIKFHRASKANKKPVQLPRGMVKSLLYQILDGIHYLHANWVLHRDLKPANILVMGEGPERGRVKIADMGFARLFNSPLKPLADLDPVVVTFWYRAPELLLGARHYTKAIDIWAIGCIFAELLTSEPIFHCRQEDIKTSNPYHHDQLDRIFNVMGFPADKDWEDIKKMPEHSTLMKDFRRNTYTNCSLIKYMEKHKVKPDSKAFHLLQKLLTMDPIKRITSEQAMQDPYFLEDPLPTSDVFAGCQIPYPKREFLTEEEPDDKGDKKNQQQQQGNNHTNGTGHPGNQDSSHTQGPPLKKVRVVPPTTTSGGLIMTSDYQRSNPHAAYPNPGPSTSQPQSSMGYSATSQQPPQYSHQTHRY", "protocol": "as §1"}, "[3]": {"target": "DDR1 (Homo sapiens, UniProt Q08345)", "sequence (Q08345 whole entry)": "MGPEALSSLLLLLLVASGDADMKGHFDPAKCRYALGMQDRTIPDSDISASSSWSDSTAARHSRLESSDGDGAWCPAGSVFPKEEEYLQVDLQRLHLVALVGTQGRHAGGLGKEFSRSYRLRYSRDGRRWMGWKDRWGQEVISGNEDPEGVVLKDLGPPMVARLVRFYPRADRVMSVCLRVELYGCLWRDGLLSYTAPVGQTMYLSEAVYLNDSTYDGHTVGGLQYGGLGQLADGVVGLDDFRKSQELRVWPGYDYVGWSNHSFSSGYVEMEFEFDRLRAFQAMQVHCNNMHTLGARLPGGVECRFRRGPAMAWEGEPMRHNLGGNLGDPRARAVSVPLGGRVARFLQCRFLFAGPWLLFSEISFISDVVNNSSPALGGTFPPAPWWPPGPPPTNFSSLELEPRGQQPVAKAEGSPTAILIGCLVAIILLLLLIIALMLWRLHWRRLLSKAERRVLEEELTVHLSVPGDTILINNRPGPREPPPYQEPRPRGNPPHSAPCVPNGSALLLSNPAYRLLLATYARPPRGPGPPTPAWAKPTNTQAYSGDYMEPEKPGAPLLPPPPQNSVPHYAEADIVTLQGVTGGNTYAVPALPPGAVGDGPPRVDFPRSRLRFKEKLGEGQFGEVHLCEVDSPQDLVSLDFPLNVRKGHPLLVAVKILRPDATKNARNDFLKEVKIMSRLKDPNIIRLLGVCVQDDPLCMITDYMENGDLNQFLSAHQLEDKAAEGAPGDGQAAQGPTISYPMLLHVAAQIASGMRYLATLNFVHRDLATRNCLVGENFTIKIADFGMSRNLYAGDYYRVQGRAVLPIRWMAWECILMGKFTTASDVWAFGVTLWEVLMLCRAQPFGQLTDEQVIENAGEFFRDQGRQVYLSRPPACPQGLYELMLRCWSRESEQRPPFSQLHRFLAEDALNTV", "protocol": "as §1"}, "[4]": {"target": "Fyn (Homo sapiens, UniProt P06241)", "sequence (P06241 whole entry)": "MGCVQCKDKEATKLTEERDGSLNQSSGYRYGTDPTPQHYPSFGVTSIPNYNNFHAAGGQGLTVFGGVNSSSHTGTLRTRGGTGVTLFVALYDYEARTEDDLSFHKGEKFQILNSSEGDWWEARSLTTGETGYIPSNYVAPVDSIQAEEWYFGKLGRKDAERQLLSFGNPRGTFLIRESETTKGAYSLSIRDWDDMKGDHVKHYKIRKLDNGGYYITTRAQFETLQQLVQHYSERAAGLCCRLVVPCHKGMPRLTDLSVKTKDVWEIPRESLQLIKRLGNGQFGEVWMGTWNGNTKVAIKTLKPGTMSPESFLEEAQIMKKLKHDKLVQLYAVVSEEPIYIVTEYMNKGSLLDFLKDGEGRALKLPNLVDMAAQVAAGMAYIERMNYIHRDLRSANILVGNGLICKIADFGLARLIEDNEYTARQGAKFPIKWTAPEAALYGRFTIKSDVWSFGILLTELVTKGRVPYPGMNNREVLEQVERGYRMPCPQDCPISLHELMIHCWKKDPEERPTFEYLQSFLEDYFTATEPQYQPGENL", "protocol": "as §1"}, "[5]": {"target": "T2, GRK1 (Homo sapiens, UniProt Q15835)", "T2 sequence (Q15835 1-563)": "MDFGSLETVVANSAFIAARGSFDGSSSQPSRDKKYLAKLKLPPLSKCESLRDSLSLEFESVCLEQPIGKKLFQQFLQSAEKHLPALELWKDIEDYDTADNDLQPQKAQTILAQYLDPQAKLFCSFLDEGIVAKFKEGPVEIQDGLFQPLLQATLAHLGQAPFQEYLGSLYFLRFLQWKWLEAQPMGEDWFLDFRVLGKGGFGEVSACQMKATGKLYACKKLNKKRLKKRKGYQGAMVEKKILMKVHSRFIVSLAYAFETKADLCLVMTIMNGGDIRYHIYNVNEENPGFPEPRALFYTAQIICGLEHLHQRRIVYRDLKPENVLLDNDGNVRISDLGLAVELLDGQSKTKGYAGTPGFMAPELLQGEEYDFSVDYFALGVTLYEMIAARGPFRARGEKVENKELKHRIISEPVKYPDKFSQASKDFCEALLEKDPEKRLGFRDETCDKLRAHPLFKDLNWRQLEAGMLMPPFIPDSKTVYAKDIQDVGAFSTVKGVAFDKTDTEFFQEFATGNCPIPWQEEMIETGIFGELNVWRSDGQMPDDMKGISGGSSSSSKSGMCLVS", "protocol": "as §1"}, "[6]": {"target": "PIM1 (Homo sapiens, UniProt P11309)", "sequence (P11309 whole entry)": "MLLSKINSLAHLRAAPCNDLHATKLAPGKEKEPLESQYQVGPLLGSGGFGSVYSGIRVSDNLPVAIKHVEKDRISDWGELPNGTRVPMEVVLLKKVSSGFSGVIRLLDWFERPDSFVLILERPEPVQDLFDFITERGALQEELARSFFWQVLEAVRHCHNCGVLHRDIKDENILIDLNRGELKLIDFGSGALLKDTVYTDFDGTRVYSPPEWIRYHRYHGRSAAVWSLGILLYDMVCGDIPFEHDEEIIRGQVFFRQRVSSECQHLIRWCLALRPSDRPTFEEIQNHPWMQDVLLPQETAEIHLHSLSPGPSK", "protocol": "as §1"}, "[7]": {"target": "T3, RSK 1 (Homo sapiens, UniProt Q15418)", "T3 construct": "gene RPS6KA1", "protocol": "as §1"}, "[8]": {"target": "Syk (Homo sapiens, UniProt P43405)", "protocol": "as §1"}, "[9]": {"target": "T4, TIE2 (Homo sapiens, UniProt Q02763)", "T4 construct": "gene TEK", "T4 sequence (Q02763 whole entry)": "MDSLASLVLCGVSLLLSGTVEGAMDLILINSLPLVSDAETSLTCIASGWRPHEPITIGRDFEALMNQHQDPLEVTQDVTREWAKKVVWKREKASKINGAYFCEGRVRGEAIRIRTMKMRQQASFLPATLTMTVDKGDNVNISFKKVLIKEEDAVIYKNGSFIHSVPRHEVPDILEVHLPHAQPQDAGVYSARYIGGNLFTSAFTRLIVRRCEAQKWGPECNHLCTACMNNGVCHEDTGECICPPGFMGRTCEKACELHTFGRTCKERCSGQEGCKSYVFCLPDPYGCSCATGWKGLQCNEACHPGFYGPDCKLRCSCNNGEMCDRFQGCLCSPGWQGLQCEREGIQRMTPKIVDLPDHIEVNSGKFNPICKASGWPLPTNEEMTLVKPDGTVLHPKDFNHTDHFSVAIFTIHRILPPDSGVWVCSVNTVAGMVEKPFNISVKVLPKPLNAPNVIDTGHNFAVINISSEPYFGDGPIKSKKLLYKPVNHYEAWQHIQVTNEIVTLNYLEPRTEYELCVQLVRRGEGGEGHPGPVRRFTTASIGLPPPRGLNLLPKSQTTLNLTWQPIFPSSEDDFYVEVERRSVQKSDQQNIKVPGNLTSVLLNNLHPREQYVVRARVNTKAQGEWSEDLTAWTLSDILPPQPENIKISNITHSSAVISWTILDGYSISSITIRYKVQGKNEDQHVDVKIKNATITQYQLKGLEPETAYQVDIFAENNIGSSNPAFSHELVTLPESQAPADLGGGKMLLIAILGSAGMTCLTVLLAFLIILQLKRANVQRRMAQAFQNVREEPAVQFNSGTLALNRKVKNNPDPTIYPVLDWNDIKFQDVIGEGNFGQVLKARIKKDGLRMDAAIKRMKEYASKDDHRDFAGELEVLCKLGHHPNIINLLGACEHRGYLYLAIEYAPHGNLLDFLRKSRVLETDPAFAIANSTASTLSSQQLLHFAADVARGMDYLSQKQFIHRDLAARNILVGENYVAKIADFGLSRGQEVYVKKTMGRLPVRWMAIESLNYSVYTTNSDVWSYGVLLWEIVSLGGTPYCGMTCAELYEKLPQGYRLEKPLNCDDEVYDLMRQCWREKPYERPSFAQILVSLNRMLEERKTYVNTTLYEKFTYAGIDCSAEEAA", "protocol": "as §1"}, "[10]": {"target": "mTOR (Homo sapiens, UniProt P42345)", "protocol": "as §1"}, "[11]": {"settings": "read-out: Kinome Profiling performed by Eurofins DiscoverX / AM-1882, 1.0 µM / POC"}, "[12]": {"settings": "read-out: Kinome Profiling performed by Eurofins DiscoverX / AM-0277, 1.0 µM / POC"}, "[13]": {"settings": "read-out: Kinome Profiling performed by Eurofins DiscoverX / AM-5308, 1.0 µM / POC"}}, "note": "Read-outs that look alike come from different tables or passages of the source."}
{"compound": "CC(C)(C)NS(=O)(=O)c1cccc(NC(=O)c2ccc(S(=O)(=O)NC(C)(C)C)cc2N2CCC3(CC2)CC3)c1", "note": "[AM-1882]", "values": [{"measurement": "remaining activity at 1 µM", "setting": "[1]; [11]", "value": 58, "unit": "%"}, {"measurement": "remaining activity at 1 µM", "setting": "[2]; [11]", "value": 34.5, "unit": "%"}, {"measurement": "remaining activity at 1 µM", "setting": "[3]; [11]", "value": 97, "unit": "%"}, {"measurement": "remaining activity at 1 µM", "setting": "[4]; [11]", "value": 85.5, "unit": "%"}, {"measurement": "remaining activity at 1 µM", "setting": "[5]; [11]", "value": 98.5, "unit": "%"}, {"measurement": "remaining activity at 1 µM", "setting": "[6]; [11]", "value": 88.5, "unit": "%"}, {"measurement": "remaining activity at 1 µM", "setting": "[7]; [11]", "value": 100, "unit": "%"}, {"measurement": "remaining activity at 1 µM", "setting": "[8]; [11]", "value": 89.5, "unit": "%"}, {"measurement": "remaining activity at 1 µM", "setting": "[9]; [11]", "value": 94.5, "unit": "%"}, {"measurement": "remaining activity at 1 µM", "setting": "[10]; [11]", "value": 98.5, "unit": "%"}]}
{"compound": "CC(C)(CO)Nc1ccc(C(=O)Nc2cccc(S(=O)(=O)C3CCCC3)c2)c(N2CCC3(CC2)CC3)n1", "note": "[AM-0277]", "values": [{"measurement": "remaining activity at 1 µM", "setting": "[1]; [12]", "value": 100, "unit": "%"}, {"measurement": "remaining activity at 1 µM", "setting": "[2]; [12]", "value": 70, "unit": "%"}, {"measurement": "remaining activity at 1 µM", "setting": "[3]; [12]", "value": 95, "unit": "%"}, {"measurement": "remaining activity at 1 µM", "setting": "[4]; [12]", "value": 100, "unit": "%"}, {"measurement": "remaining activity at 1 µM", "setting": "[5]; [12]", "value": 81, "unit": "%"}, {"measurement": "remaining activity at 1 µM", "setting": "[6]; [12]", "value": 100, "unit": "%"}, {"measurement": "remaining activity at 1 µM", "setting": "[7]; [12]", "value": 100, "unit": "%"}, {"measurement": "remaining activity at 1 µM", "setting": "[8]; [12]", "value": 100, "unit": "%"}, {"measurement": "remaining activity at 1 µM", "setting": "[9]; [12]", "value": 77, "unit": "%"}, {"measurement": "remaining activity at 1 µM", "setting": "[10]; [12]", "value": 100, "unit": "%"}]}
{"compound": "C[C@@H]1CN(c2cccc(NC(=O)c3ccc(NS(=O)(=O)CCO)cc3N3CCC4(CC3)CC4)n2)CCO1", "note": "[AM-5308]", "values": [{"measurement": "remaining activity at 1 µM", "setting": "[1]; [13]", "value": 93, "unit": "%"}, {"measurement": "remaining activity at 1 µM", "setting": "[2]; [13]", "value": 87, "unit": "%"}, {"measurement": "remaining activity at 1 µM", "setting": "[3]; [13]", "value": 100, "unit": "%"}, {"measurement": "remaining activity at 1 µM", "setting": "[4]; [13]", "value": 92, "unit": "%"}, {"measurement": "remaining activity at 1 µM", "setting": "[5]; [13]", "value": 91, "unit": "%"}, {"measurement": "remaining activity at 1 µM", "setting": "[6]; [13]", "value": 91, "unit": "%"}, {"measurement": "remaining activity at 1 µM", "setting": "[7]; [13]", "value": 91.5, "unit": "%"}, {"measurement": "remaining activity at 1 µM", "setting": "[8]; [13]", "value": 79.5, "unit": "%"}, {"measurement": "remaining activity at 1 µM", "setting": "[9]; [13]", "value": 90, "unit": "%"}, {"measurement": "remaining activity at 1 µM", "setting": "[10]; [13]", "value": 100, "unit": "%"}]}
